Results on ten compounds are retold here after ChEMBL document CHEMBL5625260, “Novel xanthone derivatives as potent sirtuin 2 inhibitors” (Bioorg Med Chem Lett, 2024).

A short description of test [1]: Antioxidant activity of compound at 150 to 1000 uM by DPPH assay. The class given is functional. The conditions noted are these: dose 150-1000 µM. (DPPH is a stable violet radical that fades when it is reduced.)
The target of test [2] is T1, NAD-dependent protein deacetylase sirtuin-1 (Homo sapiens) (UniProt Q96EB6).
T1 sequence (whole entry): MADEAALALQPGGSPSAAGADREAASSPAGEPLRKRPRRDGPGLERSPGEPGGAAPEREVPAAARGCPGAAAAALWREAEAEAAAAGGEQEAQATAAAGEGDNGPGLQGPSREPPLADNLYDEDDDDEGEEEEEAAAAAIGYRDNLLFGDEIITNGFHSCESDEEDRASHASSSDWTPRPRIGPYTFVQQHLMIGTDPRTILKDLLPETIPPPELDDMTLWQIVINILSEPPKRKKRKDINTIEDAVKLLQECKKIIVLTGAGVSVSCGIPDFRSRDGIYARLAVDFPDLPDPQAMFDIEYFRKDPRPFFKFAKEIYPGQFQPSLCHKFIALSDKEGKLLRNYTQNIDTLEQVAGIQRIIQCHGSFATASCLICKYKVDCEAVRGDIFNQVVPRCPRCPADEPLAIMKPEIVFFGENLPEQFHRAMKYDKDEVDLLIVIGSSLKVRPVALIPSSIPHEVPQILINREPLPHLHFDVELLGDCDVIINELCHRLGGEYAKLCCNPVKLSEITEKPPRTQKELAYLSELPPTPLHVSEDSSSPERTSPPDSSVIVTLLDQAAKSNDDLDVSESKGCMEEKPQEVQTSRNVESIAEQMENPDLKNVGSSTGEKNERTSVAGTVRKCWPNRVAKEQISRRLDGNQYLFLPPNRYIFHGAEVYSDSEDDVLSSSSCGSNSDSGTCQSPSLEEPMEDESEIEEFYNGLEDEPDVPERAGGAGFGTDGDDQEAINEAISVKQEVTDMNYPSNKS
As to the kind of experiment: Activation of SIRT1 (unknown origin) at 50 uM relative to control.

Test [3] deals with T2, NAD-dependent protein deacetylase sirtuin-2 (Homo sapiens) (UniProt Q8IXJ6).
T2 sequence (whole entry): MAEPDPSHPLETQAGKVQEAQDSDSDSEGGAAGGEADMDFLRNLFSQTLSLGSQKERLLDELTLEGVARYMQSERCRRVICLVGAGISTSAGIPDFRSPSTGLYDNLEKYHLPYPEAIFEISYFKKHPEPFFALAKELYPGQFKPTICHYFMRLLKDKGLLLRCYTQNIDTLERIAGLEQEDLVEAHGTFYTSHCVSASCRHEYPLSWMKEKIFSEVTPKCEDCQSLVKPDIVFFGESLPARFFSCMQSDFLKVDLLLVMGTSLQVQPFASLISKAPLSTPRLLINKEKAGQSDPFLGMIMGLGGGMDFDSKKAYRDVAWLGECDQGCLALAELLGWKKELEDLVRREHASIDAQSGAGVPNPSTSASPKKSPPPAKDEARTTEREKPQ
Kind of test: Inhibition of SIRT2 (unknown origin) at 50 uM relative to control.

The target in test [4] is T3, NAD-dependent protein deacetylase sirtuin-1 (Homo sapiens, UniProt Q96EB6).
T3 sequence (Q96EB6 whole entry): T1 sequence (whole entry)
As to the kind of experiment: Inhibition of AMC-conjugated recombinant human SIRT1 (379 to 382 residues) using […] substrate incubated for 45 mins by fluorescence based assay.

The target of test [5] is T4, NAD-dependent protein deacetylase sirtuin-3, mitochondrial (Homo sapiens, UniProt Q9NTG7).
T4 sequence (Q9NTG7 whole entry): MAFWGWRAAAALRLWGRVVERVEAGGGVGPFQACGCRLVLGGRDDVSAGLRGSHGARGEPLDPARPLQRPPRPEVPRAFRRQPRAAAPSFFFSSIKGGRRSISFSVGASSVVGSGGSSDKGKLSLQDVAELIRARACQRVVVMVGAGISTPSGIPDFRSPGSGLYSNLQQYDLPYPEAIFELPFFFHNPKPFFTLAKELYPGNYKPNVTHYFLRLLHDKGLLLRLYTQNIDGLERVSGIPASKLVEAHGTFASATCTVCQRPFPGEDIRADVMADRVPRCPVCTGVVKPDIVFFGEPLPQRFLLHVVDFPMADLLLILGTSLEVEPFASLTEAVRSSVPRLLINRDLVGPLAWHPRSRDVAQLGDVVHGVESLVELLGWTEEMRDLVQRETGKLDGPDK
As to the kind of experiment: Inhibition of AMC-conjugated recombinant human SIRT3 ( 317 to 320 residues) using […] substrate incubated for 45 mins by fluorescence based assay.

Test [6] is described as follows: Antioxidant activity of compound at 500 uM by DPPH assay relative to control. The class given is functional.
The target of test [7] is T3, NAD-dependent protein deacetylase sirtuin-1. Kind of test: Activation of N-terminal His-tagged recombinant human SIRT1 (193 to end residues) expressed in baculovirus infected Sf9 insect cells incubated for 15 to 45 mins by luminescence based assay.
For test [8], the target named is T5, NAD-dependent protein deacetylase sirtuin-2 (Homo sapiens, UniProt Q8IXJ6).
T5 sequence (Q8IXJ6 whole entry): T2 sequence (whole entry)
As to the kind of experiment: Inhibition of SIRT2 (unknown origin).

The source made the active and inactive calls. The rule behind the calls is not given here.

For orientation: inhibition means the relative decrease from the control value, in per cent. The low end stands for little suppression, the high end for strong suppression. As for `COc1ccccc1CCNCc1ccc2oc3c(Cl)cccc3c(=O)c2c1`, the outcome in test [1] was inactive. The Activity in test [2] was -22.1%. Further, the inhibition in test [3] turned out to be 93.2%.
Broadly, the IC50 is the concentration at which inhibition is half-maximal. Regarding `CC(C)=CCc1c(O)cc2oc3cc(O)c(O)c(CC=C(C)C)c3c(=O)c2c1O`, the IC50 in test [4] turned out to be 22.4 µM; in test [5], 26.8 µM.
Turning to `COc1ccccc1N1CCN(Cc2ccc3oc4c(Cl)cccc4c(=O)c3c2)CC1`, the outcome in test [1] was inactive. Also, the Activity in test [2] was -17.1%. Further, the inhibition in test [3] was determined as 49.5%.
Regarding `COc1ccc(OC)c(CN2CCN(Cc3ccc4oc5c(Cl)cccc5c(=O)c4c3)CC2)c1`, the Activity in test [2] was -12.4%. In addition, the inhibition in test [3] worked out at 55.9%.
On to `COc1cccc(N2CCN(Cc3ccc4oc5c(Cl)cccc5c(=O)c4c3)CC2)c1`, for which the result in test [1] was inactive. Moreover, the Activity in test [2] was -117%; in test [6], 17.9%. The inhibition in test [3] came to 48.5%.
One may read the EC50 as the concentration needed to bring the measured effect to its halfway point. Take `CC(C)=CCc1c(O)c(CC=C(C)C)c2oc3c(O)ccc(O)c3c(=O)c2c1O` [GARTANIN]: the EC50 in test [7] turned out to be 1790 nM.
Turning to `Oc1ccc(/C=C/c2cc(O)cc(O)c2)cc1`, the Activity in test [2] (filed as activator) is 96.6%. In addition, the inhibition in test [3] is 83%.
For `COc1ccc(CNCc2ccc3oc4c(Cl)cccc4c(=O)c3c2)cc1OC`, the outcome in test [1] was inactive. The Activity in test [2] was -19.5%. This compound also displayed an inhibition in test [3] of 82.7%.
Take `COc1ccccc1CNCc1ccc2oc3c(Cl)cccc3c(=O)c2c1`: the result in test [1] was inactive. Further, the Activity in test [2] is -10.3%. Also, the inhibition in test [3] came out at 82.1%.
In the case of `Cc1ccc(C(=O)Nc2ccc(S(=O)(=O)O)c3cc(S(=O)(=O)O)cc(S(=O)(=O)O)c23)cc1NC(=O)c1cccc(NC(=O)Nc2cccc(C(=O)Nc3cc(C(=O)Nc4ccc(S(=O)(=O)O)c5cc(S(=O)(=O)O)cc(S(=O)(=O)O)c45)ccc3C)c2)c1` [SURAMIN], the IC50 in test [8] was 24 µM.
